Laboratory results reported in ChEMBL document CHEMBL1155271, “Synthesis, crystal structures and antibacterial activity studies of aza-derivatives of phytoalexin from cotton plant--gossypol” (2009).
Values after ≈ are worked out from the molar mass of the structure shown. Active and inactive are the calls of the source. The calls are words filed in the database; no cut-off is given here.

Experiments:
Type in all cases: functional
[1] = test system: Staphylococcus aureus; assay: Antimicrobial activity against Methicillin susceptible Staphylococcus aureus 213/7 by twofold dilution technique
[2] = test system: Staphylococcus aureus; assay: Antimicrobial activity against Staphylococcus aureus ATCC 25923 after 18 hrs by twofold dilution technique; settings: ATCC 25923, 18 h
[3] = test system: Staphylococcus aureus; assay: Antimicrobial activity against methicillin-resistant Staphylococcus aureus 218/7 by twofold dilution technique
[4] = test system: Staphylococcus aureus; assay: Antimicrobial activity against Methicillin susceptible Staphylococcus aureus 239/7 by twofold dilution technique
[5] = test system: Staphylococcus aureus; assay: Antimicrobial activity against Methicillin susceptible Staphylococcus aureus 207/7 by twofold dilution technique
[6] = test system: Staphylococcus epidermidis; assay: Antimicrobial activity against Staphylococcus epidermidis ATCC 12228 at 400 ug after 18 hrs by disk diffusion method; settings: ATCC 12228, 18 h, read-out: DIZ
[7] = test system: Staphylococcus aureus; assay: Antimicrobial activity against Methicillin susceptible Staphylococcus aureus 237/7 by twofold dilution technique
[8] = test system: Staphylococcus aureus; assay: Antimicrobial activity against methicillin-resistant Staphylococcus aureus 140/6 by twofold dilution technique
[9] = test system: Staphylococcus aureus; assay: Antimicrobial activity against Methicillin susceptible Staphylococcus aureus 212/7 by twofold dilution technique
[10] = test system: Staphylococcus aureus; assay: Antimicrobial activity against Staphylococcus aureus ATCC 29213 at 400 ug after 18 hrs by disk diffusion method; settings: ATCC 29213, 18 h, read-out: DIZ
[11] = test system: Enterococcus hirae; assay: Antimicrobial activity against Enterococcus hirae ATCC 10541 at 400 ug after 18 hrs by disk diffusion method
[12] = test system: Staphylococcus aureus; assay: Antimicrobial activity against Staphylococcus aureus ATCC 6538 at 400 ug after 18 hrs by disk diffusion method; settings: ATCC 6538, 18 h, read-out: DIZ
[13] = test system: Micrococcus luteus; assay: Antimicrobial activity against Micrococcus luteus ATCC 10240 at 400 ug after 18 hrs by disk diffusion method; settings: ATCC 10240, 18 h, read-out: DIZ
[14] = test system: Staphylococcus aureus; assay: Antimicrobial activity against methicillin-resistant Staphylococcus aureus 141/6 by twofold dilution technique
[15] = test system: Staphylococcus aureus; assay: Antimicrobial activity against methicillin-resistant Staphylococcus aureus 236/7 by twofold dilution technique
[16] = test system: Staphylococcus aureus; assay: Antimicrobial activity against methicillin-resistant Staphylococcus aureus 146/6 by twofold dilution technique
[17] = test system: Micrococcus luteus; assay: Antimicrobial activity against Micrococcus luteus ATCC 10240 by twofold dilution technique
[18] = test system: Staphylococcus aureus; assay: Antimicrobial activity against Staphylococcus aureus NCTC 4163 after 18 hrs by twofold dilution technique; settings: NCTC 4163, 18 h
[19] = test system: Staphylococcus aureus; assay: Antimicrobial activity against Methicillin susceptible Staphylococcus aureus 243/7 by twofold dilution technique
[20] = test system: Staphylococcus aureus; assay: Antimicrobial activity against Staphylococcus aureus ATCC 25923 at 400 ug after 18 hrs by disk diffusion method; settings: ATCC 25923, 18 h, read-out: DIZ
[21] = test system: Enterococcus hirae; assay: Antimicrobial activity against Enterococcus hirae ATCC 10541 after 18 hrs by twofold dilution technique; settings: ATCC 10541, 18 h
[22] = test system: Bacillus cereus; assay: Antimicrobial activity against Bacillus cereus ATCC 11778 at 400 ug after 18 hrs by disk diffusion method; settings: ATCC 11778, 18 h, read-out: DIZ
[23] = test system: Staphylococcus aureus; assay: Antimicrobial activity against Staphylococcus aureus ATCC 29213 after 18 hrs by twofold dilution technique; settings: ATCC 29213, 18 h
[24] = test system: Staphylococcus aureus; assay: Antimicrobial activity against methicillin-resistant Staphylococcus aureus 136/6 by twofold dilution technique
[25] = test system: Staphylococcus epidermidis; assay: Antimicrobial activity against Staphylococcus epidermidis ATCC 12228 by twofold dilution technique
[26] = test system: Bacillus subtilis; assay: Antimicrobial activity against Bacillus subtilis ATCC 6633 at 400 ug after 18 hrs by disk diffusion method; settings: ATCC 6633, 18 h, read-out: DIZ
[27] = test system: Staphylococcus aureus; assay: Antimicrobial activity against methicillin-resistant Staphylococcus aureus 144/6 by twofold dilution technique
[28] = test system: Staphylococcus aureus; assay: Antimicrobial activity against methicillin-resistant Staphylococcus aureus 143/6 by twofold dilution technique
[29] = test system: Staphylococcus aureus; assay: Antimicrobial activity against methicillin-resistant Staphylococcus aureus 200/7 by twofold dilution technique
[30] = test system: Micrococcus luteus; assay: Antimicrobial activity against Micrococcus luteus ATCC 9341 after 18 hrs by twofold dilution technique; settings: ATCC 9341, 18 h
[31] = test system: Bacillus cereus; assay: Antimicrobial activity against Bacillus cereus ATCC 11778 after 18 hrs by twofold dilution technique; settings: ATCC 11778, 18 h
[32] = test system: Staphylococcus aureus; assay: Antimicrobial activity against Methicillin susceptible Staphylococcus aureus 206/7 by twofold dilution technique
[33] = test system: Staphylococcus aureus; assay: Antimicrobial activity against Staphylococcus aureus NCTC 4163 at 400 ug after 18 hrs by disk diffusion method; settings: NCTC 4163, 18 h, read-out: DIZ
[34] = test system: Staphylococcus aureus; assay: Antimicrobial activity against Methicillin susceptible Staphylococcus aureus 238/7 by twofold dilution technique
[35] = test system: Micrococcus luteus; assay: Antimicrobial activity against Micrococcus luteus ATCC 9341 at 400 ug after 18 hrs by disk diffusion method
[36] = test system: Staphylococcus aureus; assay: Antimicrobial activity against Staphylococcus aureus ATCC 6538 after 18 hrs by twofold dilution technique; settings: ATCC 6538, 18 h
[37] = test system: Staphylococcus aureus; assay: Antimicrobial activity against Methicillin susceptible Staphylococcus aureus 242/7 by twofold dilution technique
[38] = test system: Staphylococcus aureus; assay: Antimicrobial activity against methicillin-resistant Staphylococcus aureus 217/7 by twofold dilution technique
[39] = test system: Staphylococcus aureus; assay: Antimicrobial activity against Methicillin susceptible Staphylococcus aureus 208/7 by twofold dilution technique
[40] = test system: Bacillus subtilis; assay: Antimicrobial activity against Bacillus subtilis ATCC 6633 after 18 hrs by twofold dilution technique; settings: ATCC 6633, 18 h

| SMILES | MIC [1] | MIC [2] | MIC [3] | MIC [4] | MIC [5] | zone of inhibition at 400 µg/disc [6] | MIC [7] | MIC [8] | MIC [9] | zone of inhibition at 400 µg/disc [10] | diameter of the inhibition zone (DIZ) [11] | zone of inhibition at 400 µg/disc [12] | zone of inhibition at 400 µg/disc [13] | MIC [14] | MIC [15] | MIC [16] | MIC [17] | MIC [18] | MIC [19] | zone of inhibition at 400 µg/disc [20] | also measured |
| --- | --- | --- | --- | --- | --- | --- | --- | --- | --- | --- | --- | --- | --- | --- | --- | --- | --- | --- | --- | --- | --- |
| Cc1cc2c(c(O)c1-c1c(C)cc3c(c1O)/C(=C/N)C(=O)C(O)=C3C(C)C)/C(=C/N)C(=O)C(O)=C2C(C)C | 100 mg/L (≈ 194 µM) | 100 mg/L (≈ 194 µM) | 100 mg/L (≈ 194 µM) | 100 mg/L (≈ 194 µM) | 200 mg/L (≈ 387 µM) | 12 mm | 100 mg/L (≈ 194 µM) | 100 mg/L (≈ 194 µM) | 200 mg/L (≈ 387 µM) | 13 mm | inactive | 14 mm | 14 mm | 100 mg/L (≈ 194 µM) | 100 mg/L (≈ 194 µM) | 100 mg/L (≈ 194 µM) | 100 mg/L (≈ 194 µM) | 100 mg/L (≈ 194 µM) | 100 mg/L (≈ 194 µM) | 13 mm | MIC [21]: 100 mg/L (≈ 194 µM); zone of inhibition at 400 µg/disc [22]: 11 mm; MIC [23]: 50 mg/L (≈ 96.8 µM); MIC [24]: 100 mg/L (≈ 194 µM); MIC [25]: > 400 mg/L; zone of inhibition at 400 µg/disc [26]: 11 mm; MIC [27]: 100 mg/L (≈ 194 µM); MIC [28]: 100 mg/L (≈ 194 µM); MIC [29]: 100 mg/L (≈ 194 µM); MIC [30]: 100 mg/L (≈ 194 µM); MIC [31]: 50 mg/L (≈ 96.8 µM); MIC [32]: 100 mg/L (≈ 194 µM); zone of inhibition at 400 µg/disc [33]: 15 mm; MIC [34]: 100 mg/L (≈ 194 µM); zone of inhibition at 400 µg/disc ([35]; ATCC 9341, 18 h, read-out: DIZ): 11 mm; MIC [36]: 50 mg/L (≈ 96.8 µM); MIC [37]: 50 mg/L (≈ 96.8 µM); MIC [38]: 200 mg/L (≈ 387 µM); MIC [39]: 100 mg/L (≈ 194 µM); MIC [40]: 100 mg/L (≈ 194 µM) |
| COCCOCCN/N=C/c1c(O)c(O)c(C(C)C)c2cc(C)c(-c3c(C)cc4c(C(C)C)c(O)c(O)c(/C=N/NCCOCCOC)c4c3O)c(O)c12 | 200 mg/L (≈ 266 µM) | 200 mg/L (≈ 266 µM) | 200 mg/L (≈ 266 µM) | 400 mg/L (≈ 533 µM) | 400 mg/L (≈ 533 µM) | 12 mm | 200 mg/L (≈ 266 µM) | 200 mg/L (≈ 266 µM) | 400 mg/L (≈ 533 µM) | 13 mm | inactive | 12 mm | 11 mm | 200 mg/L (≈ 266 µM) | 100 mg/L (≈ 133 µM) | 200 mg/L (≈ 266 µM) | 200 mg/L (≈ 266 µM) | 200 mg/L (≈ 266 µM) | 400 mg/L (≈ 533 µM) | 12 mm | MIC [21]: 200 mg/L (≈ 266 µM); zone of inhibition at 400 µg/disc [22]: 11 mm; MIC [23]: 100 mg/L (≈ 133 µM); MIC [24]: 100 mg/L (≈ 133 µM); MIC [25]: > 400 mg/L; zone of inhibition at 400 µg/disc [26]: 11 mm; MIC [27]: 200 mg/L (≈ 266 µM); MIC [28]: 400 mg/L (≈ 533 µM); MIC [29]: 200 mg/L (≈ 266 µM); MIC [30]: 200 mg/L (≈ 266 µM); MIC [31]: 100 mg/L (≈ 133 µM); MIC [32]: 100 mg/L (≈ 133 µM); zone of inhibition at 400 µg/disc [33]: 12 mm; MIC [34]: 100 mg/L (≈ 133 µM); diameter of the inhibition zone (DIZ) [35]: inactive; MIC [36]: 100 mg/L (≈ 133 µM); MIC [37]: 50 mg/L (≈ 66.6 µM); MIC [38]: 400 mg/L (≈ 533 µM); MIC [39]: 400 mg/L (≈ 533 µM); MIC [40]: 400 mg/L (≈ 533 µM) |
